In US20230339970A1, “CASEIN KINASE 1 DELTA MODULATORS” (priority 2020, published 2023) one finds IC50 data, which are given here for 26 compounds.

In test [1] the target is T1, human CSNK1D (Homo sapiens, UniProt P48730).
T1 construct: expressed in transfected cells
As to the kind of experiment: Whole Cell nBRET CSNK1D Binding Assay. Conditions: living CHO cells stably expressing human CSNK1D tagged with nanoluciferase; NanoBret tracer 130 nM; 2 hours at 37 C.

Test [2] has as its target T2, human recombinant GST cleaved CSNK1D (Homo sapiens, UniProt P48730).
T2 construct: GST (cleaved yes); purchased University of Dundee clone DU 19064
Put plainly: Purified Enzyme Assay (ADP-Glo CSNK1D Kinase Assay). It is filed as biochemical. Conditions: 2 nM CSNK1D; peptide substrate 150 μM; ATP 20 μM; 45 minutes at room temperature. In outline:
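GST-cleaved human recombinant CSNK1D phosphorylates peptide PLSRTL-pS-VASLPGL with ATP; compounds added in dose-response, 45 min at room temperature. ADP formed measured by ADP-Glo luminescence and converted to percent activity.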
(ADP-Glo first removes unused ATP, then detects ADP through luciferase.)

SMILES strings stand for the structures.

T2 sequence (P48730 whole entry): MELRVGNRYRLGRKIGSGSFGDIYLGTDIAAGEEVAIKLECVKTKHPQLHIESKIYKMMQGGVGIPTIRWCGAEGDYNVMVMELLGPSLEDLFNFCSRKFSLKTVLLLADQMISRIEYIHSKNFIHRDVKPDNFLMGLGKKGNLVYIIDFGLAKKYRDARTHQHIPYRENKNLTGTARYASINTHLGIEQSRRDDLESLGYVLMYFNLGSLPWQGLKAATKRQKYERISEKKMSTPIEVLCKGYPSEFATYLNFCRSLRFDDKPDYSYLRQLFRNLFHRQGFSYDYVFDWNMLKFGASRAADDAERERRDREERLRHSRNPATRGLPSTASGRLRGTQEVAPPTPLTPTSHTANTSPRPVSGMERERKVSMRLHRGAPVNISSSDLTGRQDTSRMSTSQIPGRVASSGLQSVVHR
T1 sequence (P48730 whole entry): as above

Usually IC50 stands for the concentration that gives 50% inhibition. With `Fc1ccc(-c2nn3c(c2-c2ccnc4[nH]ncc24)CO[C@@H](C2CCC2)C3)nc1` (single isomer, unassigned) [Example 111, (*S)-6-Cyclobutyl-2-(5-fluoropyridin-2-yl)-3-(1H-pyrazolo[3,4-b]pyridin-4-yl)-6,7-dihydro-4H-pyrazolo[5,1-c][1,4]oxazine], the figures for the 50% inhibitory concentration (IC50) in test [1] and in test [2] were 1070 nM and 36 nM, respectively.
`Cc1n[nH]c2nccc(-c3c(-c4ccc(F)cn4)nn4c3COC(C)(C)C4)c12` [Example 160, 2-(5-Fluoropyridin-2-yl)-6,6-dimethyl-3-(3-methyl-1H-pyrazolo[3,4-b]pyridin-4-yl)-6,7-dihydro-4H-pyrazolo[5,1-c][1,4]oxazine]: the IC50 in test [1] was 143 nM; in test [2], 9 nM.
On to `Fc1ccc(-c2nn3c(c2-c2ccnc4[nH]ncc24)CC2(CC2)C3)cc1` [Example 247, 2-(4-Fluorophenyl)-3-(1H-pyrazolo[3,4-b]pyridin-4-yl)spiro[4,6-dihydropyrrolo[1,2-b]pyrazole-5,1′-cyclopropane]], for which the concentration for half-maximal inhibition (IC50) was 13 nM in test [1] and 2 nM in test [2].
As to `Cc1cc(-c2c(-c3ccc(F)cn3)nn3c2COC(C)(C)C3)c2c(C)n[nH]c2n1` [Example 156, 3-(3,6-Dimethyl-1H-pyrazolo[3,4-b]pyridin-4-yl)-2-(5-fluoro-2-pyridyl)-6,6-dimethyl-4,7-dihydropyrazolo[5,1-c][1,4]oxazine], the 50% inhibitory concentration (IC50) in test [1] was determined as 87 nM; in test [2], 5 nM.
For the compound `Fc1ccc(-c2nn3c(c2-c2ccnc4[nH]ncc24)COC(C(F)(F)F)C3)nc1` (stereo not shown) [Example 102, 2-(5-Fluoropyridin-2-yl)-3-(1H-pyrazolo[3,4-b]pyridin-4-yl)-6-(trifluoromethyl)-6,7-dihydro-4H-pyrazolo[5,1-c][1,4]oxazine], the IC50 in test [1] came to 844 nM; in test [2], 39 nM.
Regarding `C[C@H]1n2nc(-c3ccc(F)cn3)c(-c3ccnc4[nH]ncc34)c2COC1(C)C` (single isomer, unassigned) [Example 173, (*R)-2-(5-Fluoropyridin-2-yl)-6,6,7-trimethyl-3-(1H-pyrazolo[3,4-b]pyridin-4-yl)-6,7-dihydro-4H-pyrazolo[5,1-c][1,4]oxazine], the results for the IC50 in test [1] and in test [2] were 840 nM and 42 nM, respectively.
As for `Fc1ccc(-c2nn3c(c2-c2ccnc4[nH]ncc24)C2CCC3CC2)cc1` [Example 64, 2-(4-Fluorophenyl)-3-(1H-pyrazolo[3,4-b]pyridin-4-yl)-4,5,6,7-tetrahydro-4,7-ethanopyrazolo[1,5-a]pyridine], the IC50 in test [1] came out at 12 nM; in test [2] it was 1 nM.
As to `CCn1ncc2cc(-c3c(-c4ccc(F)cn4)nn4c3CO[C@@H](C)C4)cnc21` [Example 371, (S)-3-(1-Ethyl-1H-pyrazolo[3,4-b]pyridin-5-yl)-2-(5-fluoropyridin-2-yl)-6-methyl-6,7-dihydro-4H-pyrazolo[5,1-c][1,4]oxazine], the IC50 in test [1] stood at 7800 nM; in test [2], 404 nM.
For `CC(=O)Nc1cc(-c2c(-c3ccc(F)cn3)nn3c2CC[C@H]2C[C@H]23)ccn1` (stereo in doubt) [Example 342, N-(4-((5a*S,6a*R)-2-(5-Fluoropyridin-2-yl)-5,5a,6,6a-tetrahydro-4H-cyclopropa[e]pyrazolo[1,5-a]pyridin-3-yl)pyridin-2-yl)acetamide], the IC50 in test [1] worked out at 454 nM; in test [2], 20 nM.
`Cc1cnn2ccc(-c3c(-c4ccc(F)cn4)nn4c3COC(C)(C)C4)cc12` [Example 383, 2-(5-Fluoro-2-pyridyl)-6,6-dimethyl-3-(3-methylpyrazolo[1,5-a]pyridin-5-yl)-4,7-dihydropyrazolo[5,1-c][1,4]oxazine]: the values for the IC50 in test [1] and in test [2] were 1040 nM and 20 nM, respectively.
On the same counts, the results for `C[C@@H]1OCc2c(-c3ccnc4[nH]ncc34)c(-c3ccc(F)cn3)nn2[C@H]1C` (stereo in doubt) [Example 119, (6*S,7*S)-2-(5-Fluoropyridin-2-yl)-6,7-dimethyl-3-(1H-pyrazolo[3,4-b]pyridin-4-yl)-6,7-dihydro-4H-pyrazolo[5,1-c][1,4]oxazine] are 751 nM and 32 nM.
On the same counts, the results for `Cc1cc(-c2c(-c3nccs3)nn3c2CCCC3)c2cn[nH]c2n1` [Example 30, 2-(3-(6-Methyl-1H-pyrazolo[3,4-b]pyridin-4-yl)-4,5,6,7-tetrahydropyrazolo[1,5-a]pyridin-2-yl)thiazole] are 762 nM and 28 nM.
On the same counts, the results for `Cc1cc(-c2c(-c3ccc(F)cc3)nn3c2OCCCC3)c2cn[nH]c2n1` [Example 217, 2-(4-Fluorophenyl)-3-(6-methyl-1H-pyrazolo[3,4-b]pyridin-4-yl)-5,6,7,8-tetrahydropyrazolo[5,1-b][1,3]oxazepane] are 25 nM and 2 nM.
As to `COc1ccc2nccc(-c3c(-c4ccc(F)cn4)nn4c3OCCC4)c2n1` [Example 190, 2-(5-Fluoro-2-pyridyl)-3-(6-methoxy-1,5-naphthyridin-4-yl)-6,7-dihydro-5H-pyrazolo[5,1-b][1,3]oxazine], the concentration for half-maximal inhibition (IC50) came to 215 nM in test [1] and 4 nM in test [2].
As to `Fc1ccc(-c2nn3c(c2-c2ccnc4[nH]ncc24)CCC(F)(COC(F)(F)F)C3)nc1` (single isomer, unassigned) [Example 317, (*R)-4-[6-Fluoro-2-(5-fluoro-2-pyridyl)-6-(trifluoromethoxymethyl)-5,7-dihydro-4H-pyrazolo[1,5-a]pyridin-3-yl]-1H-pyrazolo[3,4-b]pyridine], the half-inhibitory concentration (IC50) in test [1] turned out to be 8520 nM; in test [2] it was 111 nM.
As for `Cc1nc(-c2c(-c3ccc(F)cc3)nn3c2COC(C)(C)C3)c2cn[nH]c2n1` [Example 394, 2-(4-Fluorophenyl)-6,6-dimethyl-3-(6-methyl-1H-pyrazolo[3,4-d]pyrimidin-4-yl)-4,7-dihydropyrazolo[5,1-c][1,4]oxazine], the IC50 in test [1] was 18 nM; in test [2], 2 nM.
For the compound `COCC[C@@]1(C)CCc2c(-c3ccnc4[nH]ncc34)c(-c3ccc(F)cn3)nn2C1` (single isomer, unassigned) [Example 319, (*R)-4-[2-(5-Fluoro-2-pyridyl)-6-(2-methoxyethyl)-6-methyl-5,7-dihydro-4H-pyrazolo[1,5-a]pyridin-3-yl]-1H-pyrazolo[3,4-b]pyridine], the IC50 in test [1] turned out to be 81 nM; in test [2], 5 nM.
As to `Fc1ccc(-c2nn3c(c2-c2ccnc4[nH]ncc24)C2CCC3CC2)nc1` [Example 65, 2-(5-Fluoropyridin-2-yl)-3-(1H-pyrazolo[3,4-b]pyridin-4-yl)-4,5,6,7-tetrahydro-4,7-ethanopyrazolo[1,5-a]pyridine], the IC50 is 55 nM in test [1] and 3 nM in test [2].
On the same counts, the results for `CC(=O)Nc1cc(-c2c(-c3ccc(F)cn3)nn3c2CC[C@@H]2C[C@@H]23)ccn1` (stereo in doubt) [Example 341, N-(4-((5a*R,6a*S)-2-(5-Fluoropyridin-2-yl)-5,5a,6,6a-tetrahydro-4H-cyclopropa[e]pyrazolo[1,5-a]pyridin-3-yl)pyridin-2-yl)acetamide] are 24 nM and 2 nM.
Turning to `Cc1cc(-c2c(-c3ccc(F)cc3)nn3c2CC2(CC2)C3)c2cn[nH]c2n1` [Example 248, 2-(4-Fluorophenyl)-3-(6-methyl-1H-pyrazolo[3,4-b]pyridin-4-yl)spiro[4,6-dihydropyrrolo[1,2-b]pyrazole-5,1′-cyclopropane]], the 50% inhibitory concentration (IC50) in test [1] was found to be 6 nM; in test [2], 2 nM.
As to `C[C@]1(CF)CCc2c(-c3ccnc4[nH]ncc34)c(-c3ccc(F)cn3)nn2C1` (single isomer, unassigned) [Example 51, (*)-4-[6-(Fluoromethyl)-2-(5-fluoro-2-pyridyl)-6-methyl-5,7-dihydro-4H-pyrazolo[1,5-a]pyridin-3-yl]-1H-pyrazolo[3,4-b]pyridine], the 50% inhibitory concentration (IC50) was 11 nM in test [1] and 1 nM in test [2].
`[2H]C([2H])([2H])C1(C([2H])([2H])[2H])Cc2c(-c3c(F)c(C)nc4[nH]ncc34)c(-c3ccc(F)cn3)nn2C1` [Example 244, 5-Fluoro-4-[2-(5-fluoro-2-pyridyl)-5,5-bis(methyl-d3)-4,6-dihydropyrrolo[1,2-b]pyrazol-3-yl]-6-methyl-1H-pyrazolo[3,4-b]pyridine]: the half-maximal inhibitory concentration (IC50) in test [1] is 29 nM; in test [2] it was 4 nM.
On the same counts, the results for `COC[C@]1(F)CCc2c(-c3cc(C)nc4[nH]ncc34)c(-c3ccc(F)cn3)nn2C1` (single isomer, unassigned) [Example 53, (*S)-4-(6-Fluoro-2-(5-fluoropyridin-2-yl)-6-(methoxymethyl)-4,5,6,7-tetrahydropyrazolo[1,5-a]pyridin-3-yl)-6-methyl-1H-pyrazolo[3,4-b]pyridine] are 31 nM and 4 nM.
On the same counts, the results for `Cc1cc(-c2c(-c3ccc(F)cc3)nn3c2OC[C@H](C)C3)c2cn[nH]c2n1` (single isomer, unassigned) [Example 194, (*R)-2-(4-Fluorophenyl)-6-methyl-3-(6-methyl-1H-pyrazolo[3,4-b]pyridin-4-yl)-6,7-dihydro-5H-pyrazolo[5,1-b][1,3]oxazine] are 11 nM and 1 nM.
On the same counts, the results for `Fc1ccc(-c2nn3c(c2-c2ccnc4[nH]ncc24)CC(F)(F)CC3)nc1` [Example 48, 4-[5,5-Difluoro-2-(5-fluoro-2-pyridyl)-6,7-dihydro-4H-pyrazolo[1,5-a]pyridin-3-yl]-1H-pyrazolo[3,4-b]pyridine] are 924 nM and 40 nM.
With `c1csc(-c2nn3c(c2-c2ccnc4[nH]ncc24)CCCC3)n1` [Example 29, 2-(3-(1H-Pyrazolo[3,4-b]pyridin-4-yl)-4,5,6,7-tetrahydropyrazolo[1,5-a]pyridin-2-yl)thiazole], the 50% inhibitory concentration (IC50) was found to be 1200 nM in test [1] and 35 nM in test [2].
